Results as given in PMC10590383, “Repurposing conformational changes in ANL superfamily enzymes to rapidly generate biosensors for organic and amino acids” (Nature Communications, 2023).

Key:
Assay type in all cases: biochemical
Conditions in all cases: n = 3
GECFINDER-Phe1 = molecular target: T1, GECFINDER-Phe1 (Aneurinibacillus migulanus, UniProt P0C061); experiment: Fluorescence dose-response of purified cpEGFP sensors (0.75 uM) in 100 mM Tris-HCl pH 7.5, room temperature, 1 mM ATP, 2.5 mM MgCl2; excitation 400, 460 or 480 nm by sensor, emission 510 nm; logistic five-parameter fit.
T1 construct: gene grsA; GrsA-PheA-PCP; cpEGFP inserted in hinge B, linkers CC-DR
Method: (§1) Fig. 3 Dose–response curves and fluorescence spectrums of […]s. a, c, e, g, i, k Dose–response curve of purified […]s with increasing concentrations of ligand in 100 mM Tris-HCl buffer (pH=7.5). The normalized ΔF/F0 value increased after ligand binding. All data shown are mean ± S.D. (n = 3 biologically independent samples). b, d, f, h, j, l The fluorescence spectra of […]s changed as the ligand concentration increased. All data shown are mean ± S.D. (n = 3 biologically independent samples). Source data are provided as a Source data file.
(§2) The study conducted dose–response curve, substrate specificity, and fluorescent spectrum analyses in 100-mM Tris buffer (pH = 7.5), while pH stability experiments were performed in 100-mM Tris buffer at three different pH values (6.5, 7.5, and 8.5) at room temperature. […] protein at a concentration of 0.75 μM, various small molecule concentrations, 1 mM ATP, and 2.5 mM MgCl2 were used in the experiments. Fluorescent signals were detected using a Microplate Reader (Synergy H4, Bio Tek) at an excitation/emission wavelength of 460 nm/510 nm or 480 nm/510 nm. The dose-response curve was determined immediately after the addition of the analyte. The total duration of the measurement was 15 min, with readings taken at one-minute intervals. The dose-response curve was plotted using the fluorescence values obtained after achieving stability in the fluorescence signal. The dose-response curves were fitted using the logistic model LOGISTIC5 available in Origin 2021, which could provide a more adequate fit to asymmetric dose-response data[62],[63]. Excitation spectra were scanned from 300 to 540 nm with a step size of 5 nm, and the emission wavelength was set to 560 nm. Emission spectra were scanned from 470 to 700 nm with a step size of 5 nm, and the excitation wavelength was set to 450 nm. The thermal stability of […] was analyzed using the UNcle multifunctional protein stability analysis system. Measurements were performed in 20 mM MOPS buffer with 2 mM DTT at a sample concentration of 1 mg/mL. Absolute fluorescence quantum yields were measured using an absolute photoluminescence quantum yield spectrometer (FS5, Edinburgh).

GECFINDER-Phe2 = molecular target: T2, GECFINDER-Phe2 (Aneurinibacillus migulanus, UniProt P0C061); experiment: as above
T2 construct: gene grsA; GrsA-PheA-PCP; cpEGFP inserted in hinge B, linkers CV-LL
Method: as §1, §2

GECFINDER-Phe3 [1] = molecular target: T3, GECFINDER-Phe3 (Aneurinibacillus migulanus, UniProt P0C061); experiment: as above
T3 construct: gene grsA; GrsA-PheA-PCP; cpEGFP inserted in hinge B, linkers VF-QS
T3 sequence (P0C061 1-617): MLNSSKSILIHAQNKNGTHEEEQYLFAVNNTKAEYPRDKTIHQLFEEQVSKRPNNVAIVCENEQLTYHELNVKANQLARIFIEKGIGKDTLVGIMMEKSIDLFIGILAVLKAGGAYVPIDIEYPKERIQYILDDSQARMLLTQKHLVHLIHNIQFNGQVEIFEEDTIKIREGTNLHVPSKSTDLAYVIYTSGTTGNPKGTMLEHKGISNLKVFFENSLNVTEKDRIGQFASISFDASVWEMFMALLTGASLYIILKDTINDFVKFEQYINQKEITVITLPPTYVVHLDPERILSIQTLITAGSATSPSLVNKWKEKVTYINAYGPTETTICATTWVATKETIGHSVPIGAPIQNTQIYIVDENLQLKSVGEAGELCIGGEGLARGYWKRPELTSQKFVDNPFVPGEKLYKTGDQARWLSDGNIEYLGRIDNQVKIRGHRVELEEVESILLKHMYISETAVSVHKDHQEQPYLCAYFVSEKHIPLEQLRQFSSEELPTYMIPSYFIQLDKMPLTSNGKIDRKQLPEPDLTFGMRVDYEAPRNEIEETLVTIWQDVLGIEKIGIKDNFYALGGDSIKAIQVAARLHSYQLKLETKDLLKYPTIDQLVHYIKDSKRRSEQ
Method: as §1, §2

GECFINDER-Phe3 [2] = molecular target: T3, GECFINDER-Phe3; experiment: Fluorescence dose-response of purified […]-Phe3 with phenylalanine in 100 mM Tris at pH 8.5, room temperature, 1 mM ATP, 2.5 mM MgCl2.
Text: As cpEGFP is sensitive to pH, we conducted a dose-response curve and fluorescence intensity analysis of […]-Phe3 at varying pH levels. […] In addition, we expanded the range of ligand-binding domains (LBDs) applicable to […] and attempted optimization of insertion sites for cpEGFP with limited success. Please refer to Supplemental Note 1 for detailed information.
The study conducted dose–response curve, substrate specificity, and fluorescent spectrum analyses in 100-mM Tris buffer (pH = 7.5), while pH stability experiments were performed in 100-mM Tris buffer at three different pH values (6.5, 7.5, and 8.5) at room temperature. […] Fluorescent signals were detected using a Microplate Reader (Synergy H4, Bio Tek) at an excitation/emission wavelength of 460 nm/510 nm or 480 nm/510 nm. The dose-response curve was determined immediately after the addition of the analyte. The total duration of the measurement was 15 min, with readings taken at one-minute intervals. The dose-response curve was plotted using the fluorescence values obtained after achieving stability in the fluorescence signal. […] The thermal stability of […] was analyzed using the UNcle multifunctional protein stability analysis system. […] Absolute fluorescence quantum yields were measured using an absolute photoluminescence quantum yield spectrometer (FS5, Edinburgh). […]

Work on `N[C@@H](Cc1ccccc1)C(=O)O` [Phe, phenylalanine] yielded an EC50 (GECFINDER-Phe1) of 1.55 ± 0.23 µM, an EC50 (GECFINDER-Phe2) of 1.47 ± 0.15 µM and an EC50 (GECFINDER-Phe3 [1]) of 1.91 ± 0.08 µM. For the same compound, the EC50 (GECFINDER-Phe3 [2]) was 2.38 µM.
